Laboratory results taken from patent publication US20250375528A1, “CONJUGATE OF CELL-PENETRATING PEPTIDE AND MELPHALAN, AND PREPARATION CONTAINING CONJUGATE” (priority 2021, published 2025).
Converted amounts (≈) assume the structure as drawn. Read-outs that look alike come from different tables or passages of the source. Where a SMILES comes first, the peptide text is derived from it. Where no end group is shown, it is not given here. [ ]: non-standard residue; d: D form. ξ: configuration not given here. ξPhe(4-N(CH2CH2Cl)2) = NC(Cc1ccc(N(CCCl)CCCl)cc1)C(=O)O

How the values were obtained:
[1] = Solubility assay in normal saline (HPLC); type: physicochemical; conditions: 37° C.
Method: Liquid chromatography detection conditions for melphalan: column: YMC-Pack ODS-A column (150×4.6 mm, 5 μm); mobile phase: 40% acetonitrile solution; flow rate: 0.7 mL/min; column temperature: 25° C.; detection wavelength: 260 nm; injection volume: 10 μL.
Solubility assay: melphalan 0.1 mg was accurately weighted and dispersed in 1 mL normal saline, ultrasonicated for 5 min, incubated at 37° C. for 24 hrs, and filtered through 0.22 μm filter membrane. The peak area of the sample was obtained by liquid chromatography. The concentration of the sample was calculated by substituting the peak area in the standard curve equation.
Liquid chromatography detection conditions for 89WP-Mel and 289WP-Mel: column: YMC-Pack ODS-A column (150×4.6 mm, 5 μm); mobile phase: 5-65% acetonitrile (with 0.1% TFA), 30 min; flow rate: 0.7 mL/min; column temperature: 25° C.; detection wavelength: 214 nm; injection volume: 10 μL.
Solubility assay: The excess amount of 89WP-Mel or 289WP-Mel was dispersed in 60 μL normal saline, ultrasonicated for 5 min, incubated at 37° C. for 24 hrs, filtered through 0.22 μm filter membrane, and then diluted 10 times and 20 times respectively. The peak area of the samples was obtained by liquid chromatography. The concentration of the samples was calculated by substituting the peak area in the standard curve equation.
The samples were incubated in normal saline at 37° C. and 160 rpm for 24 h to obtain the saturated solutions. The solubility of the conjugates is converted to the solubility of melphalan moiety.

[2] = Ocular pharmacokinetic evaluation after eye dropping; type: in vivo, mice
Method: The distribution and elimination behavior of the conjugates in the eye tissues was investigated by dropping the drugs into the conjunctival sac of the mice. The conjugate solution 10 μL (at a concentration of 30 μM) was dropped into the conjunctival sac of the mice. The eyelids were gently closed to make the solution distributed evenly. […] The eyeballs were taken out and fixed with FAS eyeball fixative solution for 24 hours, dehydrated with 15% and 30% sucrose solution gradients, and then embedded in OCT to prepare 8 μm thick eyeball frozen sections. The cell nuclei were stained with DAPI.

HCEC cells [3] = assay: Intracellular distribution by laser confocal microscope; type: cell-based; conditions: 3 μM, 37° C., 4 hrs
Method: (§2) The HCEC and ARPE-19 cells with good growth status in the logarithmic phase were placed in 4-chamber confocal dishes at a density of 1×10^4 cells/well and incubated for 24 hrs. The drug solutions (all comprising 3 μM fluorescein) were added and incubated at 37° C. for 3.5 hrs. LysoTracker was then added and incubated for 0.5 hrs. Then, the drug solutions were discarded. After being washed with cold 10 mM PBS (containing 0.02 mg/mL heparin sodium) thrice and fixed with 4% paraformaldehyde, the nuclei were stained with DAPI.

ARPE-19 cell monolayer = assay: Penetration across the retinal pigment epithelial cell monolayer model; conditions: four hours after administration, 3 μM
Method: The model in FIG. 8B is obtained by seeding the WERI-Rb-1 cells in good growth state at 2×10^4 cells/well in the lower chamber 24 hours before administration.
Samples (200 μL for each sampling) were taken every 0.5 h from the lower chamber, and 200 μL fresh D-Hank's balanced salt solution was added immediately. A total of 8 samples were taken. The fluorescence signal intensity of the samples was detected with a microplate reader (Ex 490 nm/Em 520 nm).
The calculation formula of the Apparent Permeability Coefficient (Papp) is as follows:
wherein, ΔQ/Δt is the change of the molar amount of the polypeptide across the retinal pigment epithelial cell monolayer model per unit time, which can be obtained from the slope by fitting the cumulative permeability and the diffusion time; C0 is the initial concentration of the polypeptide in the donor cell, which is 3 μM; A is the area of the cornea or sclera exposed to the diffusion medium, i.e., the effective diffusion area, which is 0.825 cm^2.

ARPE-19 cells [4] = assay: Intracellular distribution by laser confocal microscope; type: cell-based; conditions: ARPE-19, 3 μM, 37° C., 4 hrs
Method: as §2

Fluc/GFP-Rb-1 cells [5] = assay: In vivo safety evaluation in orthotopic tumor-bearing mouse model
Method: Before the experiments, the healthy male Balb/c-nude mice (4 weeks old) were subjected to ophthalmic examination to ensure the normal eyes. Amobarbital sodium (40 mg/kg) was injected intraperitoneally to the mice for general anesthesia, the commercially available 0.4% oxybuprocaine hydrochloride eye drops were administrated to the surface of the eyes for local anesthesia of the eye surface, and the commercially available 0.5% tropicamide eye drops were administrated for pupil dilation. The Fluc/GFP-Rb-1 cells (resuspended in 10 mM PBS at a density of 1×10^4 cells/μL) were injected into the vitreous body of the mice via a micro-syringe (33 G, Hamilton), 2 μL cell suspension for each eye.
For the tumor-bearing mice, administration was performed by ocular surface dropping.
Detection scheme: At the end of 1 month administration, the mice were euthanized by an overdose of anesthesia (anaobarbital sodium, 150 mg/kg). The cardiac perfusion was performed sequentially with normal saline and 4% paraformaldehyde. The eyeballs, hearts, liver, spleen, lung, kidney, brain and other organs were harvested and dehydrated overnight in 15% and 30% sucrose solutions gradient. The HE stained sections and immunohistochemical sections were made and observed.

WERI-Rb-1 cells = type: cell-based; conditions: WERI-Rb-1, 4 hrs co-incubation, CCK-8
Method: (§1) The ARPE-19 and WERI-Rb-1 cells with good growth status in the logarithmic phase were placed on 96 well plates at a density of 2000 cells/well. After incubation for 24 hrs, the drug solutions at different concentrations were added. The ARPE-19 cells were incubated at 37° C. for 4 hrs. Then, the drug solutions were discarded. The plates were washed with PBS thrice. The fresh medium was then added and incubated for 24 h. Then, 0.5 mg/mL MTT was added and incubated at 37° C. for 4 hrs. The culture solution was discarded. To each well DMSO (150 μl) was added, and the plates were shaken on a shaker for 20 min. Then, the OD490nm value was measured. For the WERI-Rb-1 cells, they were incubated with drug solutions for 4 hrs, and CCK-8 reagent (10 μL) was added to each well. The plates were incubated at 37° C. for 2 hrs. The OD490nm value was measured directly. In addition, zero_adjustment wells and negative control wells (cell survival rate 100%) were set.

ARPE-19 cells [6] = type: cell-based; conditions: ARPE-19, 4 hrs co-incubation then 24 h fresh medium, MTT
Method: as §1

[7] = Hematology safety evaluation (complete blood cell count); type: in vivo, ICR mice; conditions: eye dropping 2 times a day for 2 weeks
Method: Safety evaluation of 89WP-Mel eye drops: it is likely that the eye drops may be absorbed systemically, while the chemotherapeutic drug melphalan may cause systemic toxicity. The representative side effects include bone marrow suppression, etc. Thus, hematology evaluation was performed in the administration groups to determine the safety of the eye drops. Healthy male ICR mice (18-20 g) were subjected to the administration according to the regimen of pharmacodynamic evaluation experiment, wherein the frequency of eye dropping the normal saline, melphalan solution, and 89WP-Mel solution was changed to 2 times a day for 2 weeks, and the melphalan intravitreal injection was performed once a week. At the end of administration, 200 μL of whole blood was taken, anticoagulated with EDTA, and subjected to a complete blood cell count.

HCEC cells [8] = assay: cells; type: cell-based; conditions: 4 hrs co-incubation then 24 h fresh medium, MTT
Method: The survivals of the HCEC, ARPE-19 and WERI-Rb-1 cells after co-incubation with polypeptides or conjugates were investigated by the MTT or CCK-8 methods (n=4). The HCEC or ARPE-19 cells were co-incubated with polypeptides or conjugates for 4 hrs, followed by incubation in fresh medium for 24 h before addition of MTT for detection. The WERI-Rb-1 cells were co-incubated with the polypeptides or conjugates for 4 hrs, and then CCK-8 was added directly for detection. The cells under normal culture conditions were used as negative control (100% survival).
as §1

Fluc/GFP-Rb-1 cells [9] = assay: Intraocular pharmacodynamic evaluation in tumor-bearing mice; type: in vivo
Method: Specifically, D-luciferin (150 mg/kg) was injected intraperitoneally into each mouse, followed by general anesthesia with isoflurane. Twenty minutes after anesthesia, ocular bioluminescence signals were collected, with 30 seconds exposure time. On the day of administration (D0) and at the corresponding time points after administration, the bioluminescence signals of the mice eyeballs in each group were collected. […] The whole brain tissue was harvested. The immunohistochemical sections were made and observed.

[10] = test system: retinoblastoma (Fluc/GFP-Rb-1) cells; assay: Eye drops for treatment of intraocular retinoblastoma, mouse model; type: in vivo, Balb/c nude mice; conditions: for mice with obvious tumor areas in the brain sections: 8 mice per group
Method: Construction of retinoblastoma mouse model: the male Balb/c nude mice (18-20 g) were subjected to general anesthesia by intraperitoneal injection of amobarbital sodium (30 mg/kg). The 0.4% oxybuprocaine hydrochloride was administrated for local anesthesia of the eye surface. After the anesthesia, the 0.5% tropicamide was administrated for pupil dilation. The retinoblastoma (Fluc/GFP-Rb-1) cells (resuspended in 2 μL 10 mM PBS, 2×10^4 cells for each mouse) were slowly injected into the vitreous body near retina via a micro-syringe (33 G, Hamilton). After the injection, 0.25% chloramphenicol was dropped to the ocular surface to prevent ocular inflammation. Then, it is determined whether the model was successfully established according to the bioluminescent signal intensity in the eyes of the mice. The successfully established model mice were randomly divided into 4 groups, with 8 mice in each group.
During the 60-day pharmacodynamic evaluation experiment, the dosage regimens for the different mice groups are as follows: Group 1: eye dropping with normal saline once a day, 10 μL for each dropping; Group 2: eye dropping with 3.0 mg/mL melphalan solution once a day, 10 μL for each dropping; Group 3: eye dropping with 89WP-Mel solution (containing 3.0 mg/mL melphalan) once a day, 10 μL for each dropping; Group 4: intravitreal injection with 0.5 mg/mL melphalan solution once every two weeks, 2 μL for each injection.
The method of efficacy evaluation is as follows: on Day 0, 2, 4, 6, 9, 12, 15, 17, 20, 25 and 30 after the administration, the mice in each group were injected intraperitoneally with 150 mg/kg D-Luciferin, followed by anesthesia with isoflurane for 15 min. The bioluminescent signal intensity in the eyes of the mice was detected by IVIS Spectrum system (PerkinElmer, USA).

red blood cells = assay: Ability to lyse red blood cells at different pH; type: cell-based
Method: The red blood cells were resuspended at a density of 7×10^7 cells/mL in incubation medium at different pHs. The cell suspension (75 μL) was mixed with 75 μL of aqueous solution of test sample. Pure water was set as a negative control, and 1 μL Triton X-100 dissolved in 74 μL pure water was set as a positive control. Incubation was performed at 37° C. for 1 h in an air shaker at 200 rpm. After incubation, the samples were centrifugated at 1000 g for 5 min. The supernatant (100 μL) was taken to measure the OD450 nm/750 nm via microplate reader.

[11] = read-out: Solubility of drug-polypeptide conjugate
[12] = four hours after dropping, 30 μM
[13] = intravitreal injection 0.5 mg/mL
[14] = saline or isotonic, thermodynamic from solid, read-out: Solubility of drug

CC[C@H](C)[C@H](NC(=O)[C@H](CCCCN)NC(=O)[C@@H](NC(=O)[C@H](Cc1c[nH]c2ccccc12)NC(=O)[C@@H](N)CCCNC(=N)N)[C@@H](C)CC)C(=O)N[C@@H](Cc1c[nH]c2ccccc12)C(=O)N[C@@H](Cc1ccccc1)C(=O)N[C@@H](Cc1c[nH]c2ccccc12)C(=O)N[C@@H](Cc1c[nH]c2ccccc12)C(=O)N[C@@H](CCCNC(=N)N)C(=O)N[C@@H](CCCNC(=N)N)C(=O)N[C@@H](CCSC)C(=O)N[C@@H](CCCCN)C(=O)N[C@@H](Cc1c[nH]c2ccccc12)C(=O)N[C@@H](CCCCN)C(=O)N[C@@H](CCCCN)C(=O)NC(Cc1ccc(N(CCCl)CCCl)cc1)C(=O)O (stereo partly drawn) [289WP-Mel] (H-RWIKIWFWWRRMKWKK[ξPhe(4-N(CH2CH2Cl)2)]-OH; N-terminus assumed)
solubility at 24 h [1, 11]: 41.8 ± 1.39 mg/mL (≈ 15.4 mM)

carboxyl fluorescein [FAM]
time of peak fluorescence intensity in the retina ([2]; 10 μL of 30 μM dropped into conjunctival sac): 4 h
retinal fluorescence intensity versus blank retina ([2]; 8 hours after eye dropping): no significant difference
fluorescence signal in anterior ocular segment (cornea), whole eye sections [2, 12]: no obvious green or red fluorescence signal
fluorescence signal in posterior ocular segment (retina), whole eye sections [2, 12]: no obvious green or red fluorescence signal
fluorescence signal in the cells (HCEC cells [3]): no obvious green fluorescence signal
fluorescence signal at the donor side of the cell monolayer (ARPE-19 cell monolayer): no green fluorescence signal
fluorescence signal in the cells (ARPE-19 cells [4]): no obvious green fluorescence signal

CC[C@H](C)[C@H](NC(=O)[C@H](CCCCN)NC(=O)[C@@H](NC(=O)[C@H](CCC(N)=O)NC(=O)[C@@H](N)CCCNC(=N)N)[C@@H](C)CC)C(=O)N[C@@H](Cc1c[nH]c2ccccc12)C(=O)N[C@@H](Cc1ccccc1)C(=O)N[C@@H](Cc1c[nH]c2ccccc12)C(=O)N[C@@H](Cc1c[nH]c2ccccc12)C(=O)N[C@@H](CCCNC(=N)N)C(=O)N[C@@H](CCCNC(=N)N)C(=O)N[C@@H](CCSC)C(=O)N[C@@H](CCCCN)C(=O)N[C@@H](Cc1c[nH]c2ccccc12)C(=O)N[C@@H](CCCCN)C(=O)N[C@@H](CCCCN)C(=O)NC(Cc1ccc(N(CCCl)CCCl)cc1)C(=O)O (stereo partly drawn) [89WP-Mel] (H-RQIKIWFWWRRMKWKK[ξPhe(4-N(CH2CH2Cl)2)]-OH)
safety by HE-stained sections of the various organs (Fluc/GFP-Rb-1 cells [5]; eye dropping, 1 month): safe
IC50 (WERI-Rb-1 cells): 0.28 µM
IC50 (ARPE-19 cells [6]; read-out: IC50): 177 µM
platelet count versus normal saline eye dropping group [7]: did not significantly decrease
red blood cell count versus normal saline eye dropping group [7]: did not significantly decrease
white blood cell count versus normal saline eye dropping group [7]: did not significantly decrease
IC50 (HCEC cells [8]; read-out: IC50): 147 µM
solubility at 24 h [1, 11]: 44.7 ± 2.62 mg/mL (≈ 16.8 mM)

N[C@@H](Cc1ccc(N(CCCl)CCCl)cc1)C(=O)O [melphalan]
mice with obvious brain tumor areas (Fluc/GFP-Rb-1 cells [9]; eye dropping 3.0 mg/mL): one
tumor growth curve versus normal saline eye dropping group (Fluc/GFP-Rb-1 cells [9]; eye dropping 10 μl once a day, 3.0 mg/mL melphalan content): no significant difference
mice with obvious brain tumor areas (Fluc/GFP-Rb-1 cells [9]; [13]): two
survival period versus normal saline group (Fluc/GFP-Rb-1 cells [9]; intravitreal injection 0.5 mg/mL, 2 μL, once per two weeks): no significant difference
size of the vitreous seeds of intraocular tumors, order of groups (Fluc/GFP-Rb-1 cells [5]; melphalan solution 3.0 mg/mL eye dropping): normal saline group≈melphalan solution eye dropping group
IC50 (ARPE-19 cells [6]): 100 to 200 µM
IC50 (ARPE-19 cells [6]; listed as Mel): 200 µM
mice with obvious tumor areas in the brain sections ([10]; eye dropping 3.0 mg/mL): 1
anti-tumor effect in the first month of administration ([10]; eye drops once a day, 3.0 mg/mL melphalan content): no antitumor effect
mice with obvious tumor areas in the brain sections [10, 13]: 2
IC50 (HCEC cells [8]; listed as Mel): 113 µM
IC50 (HCEC cells [8]; Homo sapiens): 100 to 200 µM
solubility at 24 h [1, 14]: < 0.001 mg/mL
solubility thermodynamic at 24 h [1, 14]: < 0.001 mg/mL

RQIKIWFWWRRMKWKK [89WP]
hemolysis ratio (red blood cells; pH 5.5, 40 μM): 16.4%
hemolysis ratio (red blood cells; pH 5.5, 640 μM): 45.1%
hemolysis ratio (red blood cells; pH 6.0, 160 μM): 21.7%
hemolysis ratio (red blood cells; pH 6.0, 640 μM): 33.3%
hemolysis ratio (red blood cells; pH 7.4, 640 μM): 25.8%
hemolysis ratio (red blood cells; pH 7.4, low concentration (<320 μM)): around 10%
